Experimental findings from patent US20240350669A1, “INHIBITION OF KYNURENINE SYNTHESIS AND/OR SIGNALING TO TREAT LEUKEMIA AND MYELODYSPLASIA” (THE TRUSTEES OF COLUMBIA UNIVERSITY IN THE CITY OF NEW YORK, priority 2022, published 2024) are described below.

In data set [1] the test system is MLL/AF9 AML cells. Nature of the data set: MLL/AF9 syngeneic leukemia model in non-irradiated WT mice. The format is in vivo, mouse. As for the experimental part:
PTH bone-anabolic treatment: mice were injected intraperitoneally (i.p.) with PTH (Bachem) at 80 μg/kg/day in PBS. Injections started 1 week before MLL/AF9 injection and continued along 2-3 more weeks until mice were harvest.
SB224289-SB9-(TOCRIS Cat #1221) treatment: mice were injected intraperitoneally (i.p.) daily with SB9 (5 mg/kg in 0.9% NaCl) 1 week after leukemia injection and for the duration of the experiment. Assuming a 20 g body weight (BW) and a 2 ml total blood volume per mouse—as well as an even distribution of the drug-systemic concentration of SB9 should be approximately 50 μg/ml. Based on the MW of SB9 (557.09), the final concentration—at equal distribution—in blood should be 8.97521e-05 M (≈90 μM).
(§1) Epacadostat (AdooQ Cat #A15554)-treatment: for the WT C57BL/6J mice, treatment started at the same time than MLL/AF9 cells were transplanted. For the patient-derived AML cells (PDX) transplanted into NSG mice, treatment started 8 weeks after transplant, at the same time than Ara-C and during 3 weeks. Mice were supplied with ad libitum epacadostat-supplemented diet (Research Diets Inc.) at 800 mg/kg (low-dose) or 1.6 g/kg (high-dose). For the PDX transplanted into NSGS mice, treatment started 3 weeks after transplant, by daily gavage at 300 mg/kg (InvivoChem Cat #: V0942, dissolved in 10% DMSO, 40% PEG 300 and 50% NaCl 0.9%) for 2 weeks.
All leukemia models were introduced by intravenous (i.v.) injection and transplanted into non-irradiated secondary recipient experimental animals. BALB/c mice were used for the WEHI-3B leukemia model (0.5×10^6/cells/mouse) and C57BL/6J mice for MLL/AF9-dsRed (0.2×10^6/cells/mouse). Leukemia progression was assessed by fluorescence (MLL/AF9 dsRed) using the IVIS-Spectrum Optical Imaging System (Caliper, Perkin Elmer). Mice were shaved to reduce light attenuation.

Data set [2] concerns IDO1. Nature of the data set: Circulating Kyn and Trp levels (ELISA) in WT mice on epacadostat diet. The format is in vivo, mouse. As to the method:
as §1
(§2) Quantification in serum from peripheral blood (mice) or BM plasma (patients) of Kyn and Trp was assessed by ELISA using independent kits (ImmunoSmol) as per manufacturer's instructions. The ratio between Kyn and Trp levels is shown. SAA3 in serum (murine SAA3 ELISA Kit Millipore) and SAA1 in patient BM plasma (Amyloid A1 DuoSet ELISA Kit (R&D) were assessed as per manufacturer's instructions.
(In general: An ELISA detects its analyte on a solid surface through an enzyme-linked reagent.)

A short description of data set [3]: Systemic toxicity observation in WT mice on epacadostat diet. The format is in vivo. To be noted: ad libitum diet 0.8 g/kg. As to the method: as §1
Data set [4] concerns IDO1. Nature of the data set: Epacadostat in vitro: kynurenine secretion and cell cycle progression. Type of data set: cell-based.
For data set [5], the system named is patient-derived AML cells. The data set is described as follows: Patient-derived AML xenograft (PDX) in NSGS mice, epacadostat daily gavage. Type of data set: in vivo, mouse. To be noted: daily gavage 300 mg/kg. As for the experimental part: as §1
4-6 weeks old NSG (CDX model) or NSGS (PDX model) mice were pre-conditioned with sublethal (1.4 Gy) total-body irradiation. 24 h after, 1×10^6 OCI-AML3 or 2×10^5 human BM CD34^+ (healthy) or primary AML patient samples were injected i.v. Engraftment levels were monitored and mice were randomized after BM aspiration 3-4 weeks later and immunophenotyped by the presence of mCD45 (BioLegend Cat #103133, RRID: AB_10899570), hCD45 (BioLegend Cat #368512, RRID: AB_2566372), hCD33 (BioLegend Cat #303404, RRID: AB_314348), hCD34 (BioLegend Cat #343518, RRID: AB_1937203) cell populations. For the low-burden PDX model (kynurenine injections), mice were treated 1 week after transplant.
as §2
Cell labelling was done by i.p. injection of mice with 50 mg/kg of freshly prepared 5-Ethynyl-2′-deoxyuridine-Edu-(Cayman Chemical Company Cat #20518). After 3-4 h, BM was harvested, and human cells were negatively selected by mouse cell depletion using mouse CD45 magnetic beads (Miltenyi). The human BM cells were then stained CD45 and CD33 to identify the leukemic blast. Cell cycle/proliferation analysis was performed using the Click-iT Plus EdU Flow Cytometry Assay Kit (Invitrogen, Cat #C10420) following manufacturers' instructions. Fixable viability dye (Biolegend) was used to discriminate the death population. Single color controls were used to set compensations and fluorescence minus one control were used to set gates. Analysis was performed with FlowJo software.

The subject of data set [6] is patient-derived AML cells. The data set is described as follows: Patient-derived AML xenograft in NSG mice, epacadostat chow and/or Ara-C. The format is in vivo, mouse. As to the method: as §1
For the combination therapy (Epacadostat+chemotherapy) performed at the University of Pennsylvania, patient-derived AML cells were transplanted as previously reported (48). Briefly 6 weeks old NSG males were sublethally treated with busulfan (30 mg/kg) 24 h before transplant and 5×10^6 patient-derived AML cells were injected i.v. Engraftment was assessed, and mice were randomized at 7.5 weeks by BM aspirate as previously described. Randomized mice were treated with vehicle, cytosine arabinoside (Ara-C, 60 mg/kg/day×5 days i.p.), epacadostat chow (1.6 g/kg ad libitum) or both Ara-C and epacadostat chow for 3 weeks.
For orientation: Xenograft models place foreign cells or tissue in a host animal.

Setting [7] is: day 22 after initiating therapy, Ara-C 60 mg/kg/day x 5 days, epacadostat chow 1.6 g/kg 3 weeks.

Structures are written as SMILES.

For `NS(=O)(=O)NCCNc1nonc1C(=NO)Nc1ccc(F)c(Br)c1` [epacadostat], the survival result in data set [1] (AML-injected mice, dose not stated) is “increases in survival”. In data set [1] (epacadostat diet 0.8 g/kg), the leukemia progression entry is “tendency towards a slower leukemia progression” and the survival result was “slight-yet significant-increase in survival”. Also, the AML burden result in data set [1] (epacadostat diet 1.6 g/kg) is listed as “significant delay in AML burden”. For the same compound, the survival entry in data set [1] (epacadostat diet 1.6 g/kg, compared to the lower dose) is listed as “significantly prolonged survival”. In addition, the “reduction in serum Kyn levels” value in data set [2] (MLL/AF9-injected mice, diet 1.6 g/kg) turned out to be 35%. In data set [2] (MLL/AF9 leukemic mice, diet 0.8 g/kg), the “effect on the 1.5-fold-increase in systemic Kyn/Trp levels of MLL/AF9 leukemic mice” value is reported as “did not reduce”. Also, in data set [2] (no leukemia, ad libitum diet 0.8 g/kg), the “reduction in basal circulating Kyn/Trp levels” value is on record as 54%. Moreover, the “reduction in circulating kynurenine and tryptophan levels” value in data set [2] (wild type mice, dose not stated) stood at 41%. Besides, the systemic toxicity result in data set [3] was “did not show any obvious systemic toxicity”. In data set [4], the cell cycle progression entry is listed as “impaired” and the kynurenine secretion result is “abrogated”. For the same compound, in data set [5], the “G0-G1 and G2-M populations of leukemic blasts” value is given as “remained unchanged”; the leukemic blasts apoptosis entry is given as “increased leukemic blasts apoptosis”. For the same compound, in data set [5] (12 days), the “reduction in Kyn/Trp levels in blood” value was about 20%. The “reduction in AML BM burden” value in data set [5] (12 days, versus vehicle) is listed as about 20%. For the same compound, the “proliferation of leukemic blasts (hCD45+CD33+)” value in data set [5] (in vivo cell cycle) is “less proliferative”. Moreover, the “leukemia burden in both the bone marrow and spleen” value in data set [6] (AML patient-derived xenograft models, summary statement) is reported as “significantly decreases leukemia burden”. Moreover, in data set [6] (setting [7]), the “leukemic burden in BM” value is “decreased leukemic burden” and the “leukemic burden in spleen” value is given as “more pronounced effect in the spleen”.
